Data from US20210290741A1, “COMPOSITIONS FOR THE TREATMENT OF GRAFT VERSUS HOST DISEASE” (DA VOLTERRA, priority 2018, published 2021).

System: acute Graft vs Host disease
Experiment: Acute graft vs host disease after bone marrow + T cell transplant in lethally irradiated mice, survival (Example 5)
Format: in vivo, mice (129, female)
Conditions: 129 mice, C57BL/6 bone marrow + T cells at day 0, imipenem 100 mg/kg s.c. 3 times a week day 10-21, activated charcoal 14.4 mg/g in food day 9-22
Experimental: 30 mice (129, female) were lethally irradiated and transplanted with 5 million C57BL/6 T-cell depleted bone marrow cells as well as 1 million C57BL/6 splenic T cells at day 0.
The mice were then split in 3 groups. In group A, they received no further treatment. In group B, an imipenem treatment was initiated at day 10. It consisted of an administration of imipenem (100 mg/kg), 3 times a week by subcutaneous route. The imipenem treatment was stopped at day 21. In group C, the same imipenem treatment as group B was performed. In addition, group C mice received activated charcoal (14.4 mg/g) mixed with their food in a hydrogel every day from day 9 to day 22.
The clinical status of the mice was monitored every day from day 1 to day 21.

Compound: C[C@@H](O)[C@H]1C(=O)N2C(C(=O)O)=C(SCCN=CN)C[C@H]12 [imipenem]
- Survival at day 21: 60%
